From patent US20070207160A1, “Apoptosis inhibitors” (priority 1994, published 2007)

Legend:
Assay type in all cases: cell-based
L 29-APO-1 cells = assay: Inhibition of apoptosis induced by an anti-APO-1 antibody using DCI (MTT assay); conditions: DCI 45 μM or 15 μM, 1 hour before anti-APO-1 antibody for 7 hours, FIG. 2B
Experimental: FIG. 2B depicts the inhibition of apoptosis by DCI. L 29-APO-1 cells were incubated with DCI (●45μM, ▴15 μM) or without DCI (◯). After one hour, anti-APO-1 antibody was added in the amounts indicated in FIG. 2B and allowed to remain on the cells for 7 hours. The percentage cell death was determined by formazan production from diphenyltetrazolium salt (MTT assay).

[1] = tested on: L 29-APO-1 cells and SKW 6.4 cells; assay: Inhibition of apoptosis induced by an anti-APO-1 antibody using YVAD-CHO (DNA fragmentation, Hoechst dye 33342, FACS); conditions: permeabilized L 29-APO-1 and SKW 6.4 cells, YVAD-CHO 30 minutes, then anti-APO-1 antibodies 1 μg/ml for 60 minutes; FIG. 2C
Experimental: FIG. 2C depicts the inhibition of apoptosis by YVAD-CHO.
L 29-APO-1 cells (◯) and SKW 6.4 cells (●) were permeabilized by a short hypotonic shock and incubated with the indicated concentrations of YVAD-CHO indicated in FIG. 2C for 30 minutes. The cells were incubated with anti-APO-1 antibodies (1 μg/ml) for 60 minutes. Apoptosis was determined by measuring a DNA fragmentation using the Hoechst dye 33342 (Molecular Probes Eugene, Oreg.). Data of specific cell death (cell death in the presence of an anti-APO-1 antibody minus cell death in the absence of such an antibody) was obtained from triple measurements by using an FACS Vantage flow cytometer. Spontaneous cell death in the absence of an anti-APO-1 antibody was less than 7%.

SKW 6.4 cells = assay: Inhibition of apoptosis induced in SKW 6.4 cells by anti-APO-1 antibody; conditions: SKW 6.4 cells incubated with anti-APO-1 antibody (20 ng/ml) and varying amounts of inhibitor for 24 hours, FIG. 1
Experimental: FIG. 1 depicts the inhibition of apoptosis induced in SKW6.4 cells by means of anti-APO-1 antibodies (20 ng/ml) by human APO-1-Ig and anti-APO-1F(ab′)2, respectively.
SKW 6.4 cells (Oehm et al, supra) are apoptosis-positive cells, i.e. apoptosis can be induced therein, e.g. by binding an anti-APO-1 antibody.
SKW 6.4 cells were incubated with an anti-APO-1 antibody in the presence of varying amounts of the fusion protein of Example 1 (human APO-1-Ig) and of anti-APO-1-F(ab)2 (see above), respectively, for 24 hours. The inhibition of apoptosis was determined. See, FIG. 1.

O=c1oc(Cl)c(Cl)c2ccccc12 [DCI, 3,4-dichloroisocoumarin]
inhibition of apoptosis induced by an anti-APO-1 antibody (percentage cell death, MTT assay) (L 29-APO-1 cells): can be inhibited

YVAD-CHO
inhibition of apoptosis induced by an anti-APO-1 antibody (specific cell death, DNA fragmentation) [1]: can be inhibited

B1: fused portion of Example 1: Fusion protein in which an extracellular APO-1 domain is fused via an antibody-hinge region to an Fc portion of a human antibody (protein)
chain: QVTDINSKGLELRKTVTTVETQNLEGLHHDGQFCHKPCPPGERKARDCTVNGDEPDCVPCQEGKEYTDKAHFSSKCRRCRLCDEGHGLEVEINCTRTQNTKCRCKPNFFCNSTVCEHCDPCTKCEHGIIKECTLTSNTKCKEEGSRSN
modifications: left off: a dimerising Fc or GST
notes: Fusion protein in which an extracellular APO-1 domain is fused via an antibody-hinge region to an Fc portion of a human antibody
inhibition of apoptosis (SKW 6.4 cells): strong apoptosis-inhibiting effect
inhibition of apoptosis (SKW 6.4 cells; listed as fusion protein): especially strong
